Source: US20080167188A1, “Herbicide Combinations Comprising Special Ketoenoles” (priority 2004, published 2008)

Tests used:
Type in all cases: in vivo
PESGL = experiment: field trial, herbicidal activity against PESGL; details: 2 to 3 repetitions, highest efficacy of three assessment days, g of a.i./ha: Ex. A.5 20, Glufosinate 400, combination 20 + 400
Method: (§1) The reported results originate from field trials carried out in 2 to 3 repetitions. The weed grasses or crops are sown. The activities are assessed on three days; what is reported are the highest efficacies.

TRZAS = experiment: field trial, herbicidal activity against TRZAS; details: 2 to 3 repetitions, highest efficacy of three assessment days, g of a.i./ha: Ex. A.5 20, Glufosinate 400, combination 20 + 400
Method: as §1

ALOMY = experiment: field trial, herbicidal activity against ALOMY; details: 2 to 3 repetitions, highest efficacy of three assessment days, g of a.i./ha: Ex. A.1 20, Metazachlor 1000, combination 20 + 1000
Method: as §1

AGGRE = experiment: field trial, herbicidal activity against AGGRE; details: 2 to 3 repetitions, highest efficacy of three assessment days, g of a.i./ha: Ex. A.1 20, Metazachlor 1000, combination 20 + 1000
Method: as §1

BROSTE = experiment: field trial, herbicidal activity against BROSTE; details: 2 to 3 repetitions, highest efficacy of three assessment days, g of a.i./ha: Ex. A.1 20, Metazachlor 1000, combination 20 + 1000
Method: as §1

Compound	% Activity PESGL (PESGL) [%]	% Activity TRZAS (TRZAS) [%]	% Activity ALOMY (ALOMY) [%]	% Activity AGGRE (AGGRE) [%]	% Activity BROSTE (BROSTE) [%]
CP(=O)(O)CCC(N)C(=O)O (racemic) [Glufosinate (B4.2), 4-[hydroxy(methyl)phosphinoyl]-DL-homoalanine]	20	20			
CCc1cc(Cl)cc(OC)c1C1=C(O)C2(CCC(OC)CC2)NC1=O (stereo not shown) [Ex. A.1]			42	60	35
CCOC(=O)OC1=C(c2c(CC)cc(Cl)cc2OC)C(=O)NC12CCC(OC)CC2 (stereo not shown) [Ex. A.5]	70	69			
Cc1cccc(C)c1N(Cn1cccn1)C(=O)CCl [Metazachlor (B 3.20), 2-chloro-N-(2,6-dimethylphenyl)-N-(1H-pyrazol-1-ylmethyl)acetamide]			28	10	45
